Reference: ChEMBL document CHEMBL1649305, “Novel protease inhibitors (PIs) containing macrocyclic components and 3(R),3a(S),6a(R)-bis-tetrahydrofuranylurethane that are potent against multi-PI-resistant HIV-1 variants in vitro” (Antimicrob Agents Chemother, 2010)
pEC50: −log10 of the molar value. Calls of active or inactive are those of the source. The rule behind the calls is not given here.

Columns and labels:
[1] = system: Human immunodeficiency virus 1; assay: Antiviral activity against HIV1 expressing protease L10F/D30N/K45I/A71V/T74S mutant infected in human MT4 cells selected at 5 uM of nelfinavir by MTT assay; format: functional, organism-based; conditions: Human immunodeficiency virus 1, MT4
[2] = system: Human immunodeficiency virus 1; assay: Antiviral activity against wild type HIV1 NL4-3 infected in human MT4 cells by p24 Gag protein production inhibition assay; conditions: Human immunodeficiency virus 1, NL4-3, MT4
[3] = system: Human immunodeficiency virus 1; assay: Antiviral activity against wild type HIV1 ERS104 containing protease L63P mutant infected in human PHA-PBMC cells by p24 Gag protein production inhibition assay; conditions: Human immunodeficiency virus 1, ERS104, PBMC
[4] = system: Human immunodeficiency virus 1; assay: Antiviral activity against HIV1 expressing protease L10F/M46I/I54V/V82A mutant infected in human MT4 cells selected at 5 uM of Lopinavir by p24 Gag protein production inhibition assay; conditions: Human immunodeficiency virus 1, MT4
[5] = system: Human immunodeficiency virus 1; assay: Antiviral activity against HIV1 expressing protease L10I/G48V/I54V/A71V/I84V/L90M mutant infected in human MT4 cells selected at 5 uM of saquinavir by p24 Gag protein production inhibition assay; conditions: Human immunodeficiency virus 1, MT4
[6] = system: Human immunodeficiency virus 1; assay: Antiviral activity against HIV1 expressing protease L10F/M46I/I50V/A71V/I84V/L90M mutant infected in human MT4 cells selected at 5 uM of amprenavir by p24 Gag protein production inhibition assay; conditions: Human immunodeficiency virus 1, MT4
[7] = system: Human immunodeficiency virus 1; assay: Antiviral activity against HIV1 expressing protease L23I/E34Q/K43I/M46I/I50L/G51A/L63P/A71V/V82A/T91A mutant infected in human MT4 cells selected at 5 uM of atazanavir by p24 Gag protein production inhibition assay; conditions: Human immunodeficiency virus 1, MT4
[8] = system: Human immunodeficiency virus 1; assay: Antiviral activity against multidrug-resistant HIV1 isolate MM containing L10I, K43T, M46L, I54V, L63P, A71V, V82A, L90M, and Q92K mutant infected in human PHA-PBMC cells by p24 Gag protein production inhibition assay; conditions: Human immunodeficiency virus 1, isolate MM
[9] = system: Human immunodeficiency virus 1; assay: Antiviral activity against multidrug-resistant HIV1 isolate TM containing L10I, K14R, R41K, M46L, I54V, L63P, A71V, V82A, L90M, and I93L mutant infected in human PHA-PBMC cells by p24 Gag protein production inhibition assay; conditions: Human immunodeficiency virus 1, isolate TM
[10] = system: Human immunodeficiency virus 1; assay: Antiviral activity against multidrug-resistant HIV1 isolate G containing L10I, V11I, T12E, I15V, L19I,R41K, M46L, L63P, A71T, V82A, and L90M mutant infected in human PHA-PBMC cells by p24 Gag protein production inhibition assay; conditions: Human immunodeficiency virus 1, isolate G
[11] = system: Human immunodeficiency virus 1; assay: Antiviral activity against multidrug-resistant HIV1 isolate C containing protease L10I, I15V, K20R, L24I, M36I, M46L, I54V, I62V, L63P, K70Q, V82A, and L89M mutant infected in human PHA-PBMC cells by p24 Gag protein production inhibition assay; conditions: Human immunodeficiency virus 1, isolate C
[12] = system: Human immunodeficiency virus 1; assay: Antiviral activity against multidrug-resistant HIV1 isolate JSL containing L10I, L24I, I33F, E35D, M36I, N37S, M46L, I54V, R57K, I62V, L63P, A71V, G73S, and V82A mutant infected in human PHA-PBMC cells by p24 Gag protein production inhibition assay; conditions: Human immunodeficiency virus 1, isolate JSL
[13] = system: Human immunodeficiency virus 1; assay: Antiviral activity against multidrug-resistant HIV1 isolate B containing protease L10I, K14R, L33I, M36I,M46I, F53I, K55R, I62V, L63P, A71V, G73S, V82A, L90M, and I93L mutant infected in human PHA-PBMC cells by p24 Gag protein production inhibition assay; conditions: Human immunodeficiency virus 1, isolate B
[14] = system: Human immunodeficiency virus 1; assay: Antiviral activity against HIV1 LAI infected in human MT2 cells by MTT assay; format: functional, organism-based; conditions: Human immunodeficiency virus 1, LAI
[15] = Cytotoxicity against human MT2 cells after 7 days by MTT assay; format: cell-based
[16] = system: Human immunodeficiency virus 1; assay: Antiviral activity against HIV1 NL4-3 infected in human MT4 cells at 1 uM after 20 passages by MTT assay; format: functional, organism-based
[17] = system: Human immunodeficiency virus 1; assay: Antiviral activity against HIV1 NL4-3 infected in human MT4 cells at 1 uM after 33 passages by MTT assay; format: functional, organism-based
[18] = system: Human immunodeficiency virus 1; assay: Antiviral activity against HIV1 NL4-3 infected in human MT4 cells at 1 uM after 37 passages by MTT assay; format: functional, organism-based
[19] = system: Human immunodeficiency virus 1; assay: Antiviral activity against HIV1 NL4-3 infected in human MT4 cells after 50 passages by MTT assay; format: functional, organism-based
[20] = system: Human immunodeficiency virus 1; assay: Antiviral activity against HIV1 expressing protease L10I/L24I/M46I/V82I/I84V mutant infected in human MT4 cells selected after 50 passages of GRL-216 by MTT assay; format: functional, organism-based; conditions: Human immunodeficiency virus 1, MT4
[21] = system: Human immunodeficiency virus 1; assay: Antiviral activity against HIV1 expressing protease L10F/M46I/T91S mutant infected in human MT4 cells selected at 1 uM of GRL-246 by MTT assay; format: functional, organism-based; conditions: Human immunodeficiency virus 1, MT4
[22] = system: Human immunodeficiency virus 1; assay: Antiviral activity against HIV1 expressing protease L10F/M46L/I50V/A71Vmutant infected in human MT4 cells selected at 1 uM of GRL-286 by MTT assay; format: functional, organism-based; conditions: Human immunodeficiency virus 1, MT4
[23] = system: Human immunodeficiency virus 1; assay: Antiviral activity against HIV1 expressing protease L10F/M46M,I/Q61Q mutant infected in human MT4 cells selected at 1 uM of GRL-396 by MTT assay; format: functional, organism-based; conditions: Human immunodeficiency virus 1, MT4
[24] = system: Human immunodeficiency virus 2; assay: Antiviral activity against HIV2 EHO infected in human MT2 cells by MTT assay; format: functional, organism-based; conditions: Human immunodeficiency virus 2, EHO
[25] = system: Human immunodeficiency virus 2; assay: Antiviral activity against HIV2 ROD infected in human MT2 cells by MTT assay; format: functional, organism-based; conditions: Human immunodeficiency virus 2, ISOLATE ROD
[26] = Selectivity ratio of CC50 for human MT2 cells to EC50 for HIV1 LAI infected human MT2 cells; format: ADME, cell-based; conditions: MT2 cells (CC50) and HIV1 LAI infected MT2 cells (EC50)
[27] = system: Human immunodeficiency virus type 1 protease (Human immunodeficiency virus 1), Q72874 [L24I,V82I,I84V]; assay: Inhibition of protease L24I/V82I/I84V[…] dimerization in HIV1 infected in COS7 cells at 0.1 uM by FRET based assay; format: cell-based; conditions: COS-7

Compound	pEC50 [1]	pEC50 [2]	pEC50 [3]	pEC50 [4]	pEC50 [5]	pEC50 [6]	pEC50 [7]	pEC50 [8]	pEC50 [9]	pEC50 [10]	pEC50 [11]	pEC50 [12]	pEC50 [13]	pEC50 [14]	CC50 at 168 h [15] [nM]	pEC50 [20]	pEC50 [21]	pEC50 [22]	pEC50 [23]	pEC50 [25]	also measured
CC(C)(C)NC(=O)[C@@H]1C[C@@H]2CCCC[C@@H]2CN1C[C@@H](O)[C@H](Cc1ccccc1)NC(=O)[C@H](CC(N)=O)NC(=O)c1ccc2ccccc2n1	8.52	8.30	8.10	7.55	< 6.00	7.59	7.51	6.72	6.59	7.52	7.49	6.52	6.57	–	–	–	–	–	–	–	–
CC(C)(C)NC(=O)[C@@H]1CN(Cc2cccnc2)CCN1C[C@@H](O)C[C@@H](Cc1ccccc1)C(=O)N[C@H]1c2ccccc2C[C@H]1O	–	–	7.37	–	–	–	–	< 6.00	< 6.00	6.47	< 6.00	< 6.00	< 6.00	–	–	–	–	–	–	–	–
COc1ccc2c(c1)OCCCCCCCCN(C[C@@H](O)[C@H](Cc1ccccc1)NC(=O)O[C@H]1CO[C@H]3OCC[C@H]31)S2(=O)=O	–	–	–	–	–	–	–	–	–	–	–	–	–	7.66	33300	6.59	6.38	< 6.00	6.43	–	Activity [16]: inactive; Activity [17]: inactive; Activity [18]: inactive; Activity [19]: inactive
Cc1cccc(C)c1OCC(=O)N[C@@H](Cc1ccccc1)[C@@H](O)C[C@H](Cc1ccccc1)NC(=O)[C@H](C(C)C)N1CCCNC1=O [LOPINAVIR]	7.43	7.34	7.47	< 6.00	6.92	< 6.00	< 6.00	< 6.00	< 6.00	–	< 6.00	< 6.00	< 6.00	7.41	> 100000	6.72	6.48	< 6.00	6.55	7.55	pEC50 [24]: 7.46
CCC[C@@]1(CCc2ccccc2)CC(O)=C([C@H](CC)c2cccc(NS(=O)(=O)c3ccc(C(F)(F)F)cn3)c2)C(=O)O1	7.41	6.49	6.92	6.51	7.66	6.66	6.39	6.46	6.42	6.62	6.42	6.64	6.74	6.77	54100	7.54	7.02	7.43	7.38	6.48	pEC50 [24]: 6.52; selectivity ratio [26]: 320
COC(=O)N[C@H](C(=O)N[C@@H](Cc1ccccc1)[C@@H](O)CN(Cc1ccc(-c2ccccn2)cc1)NC(=O)[C@@H](NC(=O)OC)C(C)(C)C)C(C)(C)C [ATAZANAVIR]	7.57	8.40	8.70	7.44	6.68	8.22	< 6.00	6.74	7.19	7.48	7.19	6.37	6.70	–	–	7.85	7.49	–	7.62	–	–
COc1ccc2c(c1)OC/C=C/CCCCN(C[C@@H](O)[C@H](Cc1ccccc1)NC(=O)O[C@H]1CO[C@H]3OCC[C@H]31)S2(=O)=O	–	–	–	–	–	–	–	–	–	–	–	–	–	7.85	44900	6.62	6.43	< 6.00	6.28	–	selectivity ratio [26]: 3200; Activity [16]: inactive; Activity [17]: inactive; Activity [18]: inactive; Activity [19]: inactive; inhibition [27]: Active
Cc1c(O)cccc1C(=O)N[C@@H](CSc1ccccc1)[C@H](O)CN1C[C@H]2CCCC[C@H]2C[C@H]1C(=O)NC(C)(C)C	< 6.00	–	–	6.49	6.29	6.52	< 6.00	–	–	–	–	–	–	–	–	6.89	6.54	–	6.66	–	–
CC(C)CN(C[C@@H](O)[C@H](Cc1ccccc1)NC(=O)O[C@H]1CO[C@H]2OCC[C@H]21)S(=O)(=O)c1ccc(N)cc1	–	–	–	7.60	–	6.54	–	–	–	–	–	–	–	–	–	–	7.54	–	7.80	8.00	–
